Results as given in patent US20240277684A1, “BLOCKADE OF CHEMOKINE (C-C MOTIF) RECEPTOR 2 DURING FLUID RESUSCITATION” (University of South Florida, priority 2022, published 2024).

System: isolated rat mesenteric arteries
Assay: Pressure myography with isolated rat mesenteric arteries
Details: 10 μM, 15 min pre-exposure, vs vehicle

`COc1ccc([C@]2(O)CC[C@@H](N3CC[C@@H](NC(=O)CNC(=O)c4cccc(C(F)(F)F)c4)C3)CC2)cn1` [INCB3284] was tested, and the artery diameter was “did not alter artery diameter” and the phenylephrine-induced vasoconstriction was “did not alter artery diameter or affect phenylephrine-induced vasoconstriction”.
